In patent publication US20160215305A1, “Process of Fermenting A Lignocellulosic Biomass” (priority 2015, published 2016):

What was measured:
S. cerevisiae [1] = experiment: Batch fermentation of amino acid detoxified loblolly pine hydrolysates by Baker yeast; format: cell-based, Saccharomyces cerevisiae; details: for CEtOH, ethanol final concentration at 48 h / QEtOH, volumetric ethanol productivity in the first 6 h / RG, glucose consumption rate in the first 6 h / RM, mannose consumption rate in the first 6 h / YEtOH, ethanol yield from total glucose and mannose at 48 h: hydrolysates detoxified with amino acid 0.2% w/v
Source text: Loblolly pine (Pinus taeda) wood chips (1.0×1.0 cm, L×W) were collected by Forest Products Laboratory at Auburn University, located in Auburn, Ala. Dilute acid pretreatment was used to produce biomass hydrolysates in a 4.0 L Parr batch reactor (Parr Instrument Co., Moline, Ill.) as previously described (Lai, C. H., Tu, M. B., Li, M., Yu, S. Y. 2014. Remarkable solvent and extractable lignin effects on enzymatic digestibility of organosolv pretreated hardwood. Bioresource Technology, 156, 92-98). Briefly, wood chips (400 grams, dry weight) were soaked in 1% (w/w) sulfuric acid overnight (7:1 liquor/solid ratio) prior to the pretreatment, and then loaded into a reactor and treated at 170° C. for 60 minutes.
To achieve higher ethanol titer in fermentation, loblolly pine hydrolysates were concentrated to approximately one-third of its original volume using a rotary evaporator (IKA RV10 basic) at 40° C. and 60 rotations per minute (rpm). The hydrolysates were first adjusted to pH 4.0 before evaporation. After the concentration, the sugar contents of the hydrolysates were analyzed by HPLC.
[…] The detoxification experiments were performed in a 250 mL flask and placed in a temperature-controlled water batch.
Baker yeast (Fleischmann's), S. cerevisiae, was used for all the fermentation experiments in this study. The yeast was maintained on YDP medium containing (g/L): 20 glucose, 20 peptone, 10 yeast extract and 20 agar. Isolated colony was grown in YDP liquid medium overnight and harvested as fermentation inoculum. The yeast concentration was measured using an UV-vis spectrophotometer. Inoculum of 2.0 g/L was used for all fermentation experiments.
(§1) Batch fermentation was carried out in 125 mL serum bottles containing 50 mL broths (untreated or detoxified hydrolysates, untreated or detoxified cinnamaldehyde sugar solution) without any additional nutrient supplement. All the fermentation broths were adjusted to pH 6 with NaOH or H2SO4 and sterilized by passing 0.2 μm sterile filters. After inoculation, the serum bottle was sealed with rubber stopper and aluminum seal, and equipped with cannulas for CO2 release. All fermentation experiments were incubated at 30° C., spun at 150 rpm in a shaker (E24, New Brunswick Scientific). Aliquots of samples were withdrawn at 0, 1, 3, 6, 9, 12, 24, 36 and 48 hours for the time course analysis of both starting material and products. Fermentation was carried out in duplicate. The volumetric ethanol productivity and initial consumption rate of glucose (RG) and mannose (RM) was calculated based on the sugar consumed in the first 6 h of fermentation as described previously (Cao, D. X., Tu, M. B., Xie, R., Li, J., Wu, Y. N., Adhikari, S. 2014. Inhibitory Activity of Carbonyl Compounds on Alcoholic Fermentation by Saccharomyces cerevisiae. Journal of Agricultural and Food Chemistry, 62(4), 918-926).
Ethanol, acetic acid, levulinic acid, formic acid, furfural and HMF were analyzed using an Aminex HPX-87H column (300×7.8 mm) with a refractive index detector. The elution conditions were column temperature of 45° C. and flow rate of 0.6 ml/min with 5.0 mM H2SO4 as the mobile phase in a 60 min isocratic run.

S. cerevisiae [2] = experiment: Fermentation of glucose solution with model inhibitors (cinnamaldehyde, vanillin), with or without cysteine or glycine detoxification; format: cell-based, Saccharomyces cerevisiae; details: for detoxification of cinnamaldehyde in glucose solution (fermentation): 2.5 mM cinnamaldehyde
Protocol: as §1
Preparation of the lignocellulosic biomass and the treatment thereof was performed as described in Example 1. After detoxification, the detoxified hydrolysates were cooled to room temperature and then readjusted to pH 6.0 if needed. Similarly, for the model compound (cinnamaldehyde) detoxification, glucose (˜20 g/L) was mixed with 2.5 mM cinnamaldehyde, and then treated with 5 mM cysteine or glycine at 60° C. for 2 hours prior to fermentation.
To ascertain the potential reaction mechanism in amino acids detoxification of biomass hydrolysates, cinnamaldehyde was detoxified in glucose solution with cysteine and glycine.

S. cerevisiae [3] = details: cited from earlier work
[4] = detoxification at 80° C., pH 6.0, 2 hours
[5] = pH 6.0, 60° C., 2 hours, listed as cysteine
[6] = pH 6.0, 60° C., 2 hours detoxification
[7] = glucose ~20 g/L, 5 mM amino acid, 60° C., 2 hours
[8] = detoxification at 50° C., pH 6.0, 2 hours
[9] = detoxification at pH 8.0, 60° C., 2 hours
[10] = pH 6.0, 60° C., 2 hours, listed as glycine

N[C@@H](CS)C(=O)O [Cysteine, cysteine]
increase of volumetric ethanol productivity when pH was increased from 2 and 4 to 6 (S. cerevisiae [1]; 60° C., 2 hours): 92% | final ethanol yield (S. cerevisiae [1]; detoxification at 20, 40, 60 and 80° C. (approximately the same), pH 6.0): ~0.42 g/g | final ethanol concentration (S. cerevisiae [1]; detoxification at 20, 40, 60 and 80° C. (the same), pH 6.0): about 23.34 g/L | volumetric ethanol productivity (S. cerevisiae [1]; detoxification at 20° C., pH 6.0, 2 hours): 0.83 g/L/h | volumetric ethanol productivity (S. cerevisiae [1]; detoxification at 40° C., pH 6.0, 2 hours): 1.19 g/L/h | volumetric ethanol productivity (S. cerevisiae [1]; [4]): 1.90 g/L/h | final ethanol concentration (S. cerevisiae [1]; detoxification at pH 2.0, 4.0 and 6.0 (the same), 60° C.): 23.56 g/L | volumetric ethanol productivity (S. cerevisiae [1]; detoxification at pH 2 and 4, 60° C., 2 hours): 0.92 g/L/h | CEtOH, ethanol final concentration at 48 h (S. cerevisiae [1]; pH 6.0, 60° C., 2 hours): 23.14 ± 0.10 g/L | QEtOH, volumetric ethanol productivity in the first 6 h (S. cerevisiae [1]; pH 6.0, 60° C., 2 hours): 1.77 ± 0.03 g/L/h | RG, glucose consumption rate in the first 6 h (S. cerevisiae [1]; pH 6.0, 60° C., 2 hours): 2.10 ± 0.04 g/L/h | RM, mannose consumption rate in the first 6 h (S. cerevisiae [1]; pH 6.0, 60° C., 2 hours): 2.16 ± 0.12 g/L/h | YEtOH, ethanol yield from total glucose and mannose at 48 h (S. cerevisiae [1]; pH 6.0, 60° C., 2 hours): 0.42 ± 0.00 g/g | CEtOH, ethanol final concentration at 48 h (S. cerevisiae [1]; [5]): 23.14 g/L | QEtOH, volumetric ethanol productivity in the first 6 h (S. cerevisiae [1]; [5]): 1.77 g/L/h | RG, glucose consumption rate in the first 6 h (S. cerevisiae [1]; [5]): 2.10 g/L/h | RM, mannose consumption rate in the first 6 h (S. cerevisiae [1]; [5]): 2.16 g/L/h | YEtOH, ethanol yield from total glucose and mannose at 48 h (S. cerevisiae [1]; [5]): 0.42 g/g | ethanol productivity higher than positive sugar control (1.39 g/L/h) (S. cerevisiae [1]; [6]): 27% | improvement of mannose consumption rate compared to the positive sugar control (S. cerevisiae [1]; [6]): 43% | increase of volumetric ethanol productivity when temperature was changed from 20 to 40, 60, and 80° C. (S. cerevisiae [1]; pH 6.0, 2 hours): 43-130% | detoxification of cinnamaldehyde in glucose solution (fermentation) (S. cerevisiae [2]; [7]): detoxified cinnamaldehyde very effectively

NCC(=O)O [Glycine, glycine]
ethanol productivity (S. cerevisiae [1]; [8]): 0.24 g/L/h | final ethanol concentration (S. cerevisiae [1]; [8]): 1.87 g/L | final ethanol concentration (S. cerevisiae [1]; detoxification at 70 and 80° C., pH 6.0, 2 hours): 23.00 g/L | ethanol productivity (S. cerevisiae [1]; detoxification at 70° C., pH 6.0, 2 hours): 1.08 g/L/h | volumetric ethanol productivity (S. cerevisiae [1]; [4]): 1.33 g/L/h | fermentability of detoxified biomass hydrolysates (S. cerevisiae [1]; detoxification at pH 2.0 and 4.0, 60° C., 2 hours): not fermentable | fermentability of detoxified hydrolysates (S. cerevisiae [1]; detoxification at pH 2.0 and 4.0, 80° C.): still not fermentable | ethanol productivity (S. cerevisiae [1]; [9]): 0.87 g/L/h | final ethanol concentration (S. cerevisiae [1]; [9]): 23.77 g/L | CEtOH, ethanol final concentration at 48 h (S. cerevisiae [1]; pH 6.0, 60° C., 2 hours): 8.58 ± 0.27 g/L | QEtOH, volumetric ethanol productivity in the first 6 h (S. cerevisiae [1]; pH 6.0, 60° C., 2 hours): 0.42 ± 0.01 g/L/h | RG, glucose consumption rate in the first 6 h (S. cerevisiae [1]; pH 6.0, 60° C., 2 hours): 0.39 ± 0.01 g/L/h | RM, mannose consumption rate in the first 6 h (S. cerevisiae [1]; pH 6.0, 60° C., 2 hours): 0.50 ± 0.05 g/L/h | YEtOH, ethanol yield from total glucose and mannose at 48 h (S. cerevisiae [1]; pH 6.0, 60° C., 2 hours): 0.16 ± 0.01 g/g | CEtOH, ethanol final concentration at 48 h (S. cerevisiae [1]; [10]): 8.58 g/L | QEtOH, volumetric ethanol productivity in the first 6 h (S. cerevisiae [1]; [10]): 0.42 g/L/h | YEtOH, ethanol yield from total glucose and mannose at 48 h (S. cerevisiae [1]; [10]): 0.16 g/g | detoxification of cinnamaldehyde in glucose solution (fermentation) (S. cerevisiae [2]; glucose solution, detoxified at 80° C.): became fermentable | detoxification of cinnamaldehyde in glucose solution (fermentation) (S. cerevisiae [2]; [7]): did not detoxify the cinnamaldehyde

O=Cc1ccc(CO)o1 [HMF, hydroxymethylfurfural]
effect on ethanol production by S. cerevisiae (S. cerevisiae [3]; addition of 25 mM (3.16 g/L)): did not affect the ethanol production

CC(=O)O [acetic acid]
increase of final ethanol yield in S. cerevisiae fermentation (S. cerevisiae [3]; 9 g/L at pH 5): 16%

O=CC=Cc1ccccc1 [cinnamaldehyde, reference compound]
inhibition of glucose fermentation (S. cerevisiae [2]; 2.5 mM inhibitor in glucose solution, preliminary results): inhibited glucose fermentation significantly

COc1cc(C=O)ccc1O [vanillin, reference compound]
inhibition of glucose fermentation (final ethanol concentration and yield) (S. cerevisiae [2]; 10 mM inhibitor in glucose solution, preliminary results): did not inhibit the final ethanol concentration and yield
